From US7365049B2, “Afamin-containing compositions and methods of use” (Vitateg Biotechnology GmbH, priority 2001, dated 2008)
Entries after “also recorded” stand apart in the source; their conditions may differ.

B1: Afamin: 87 kDa protein which belongs to the albumin group; cloned and sequenced, also available in recombinant form (protein, UniProt P43652 22-599, looked up)
Afamin: LPTQPRDIENFNSTQKFIEDNIEYITIIAFAQYVQEATFEEMEKLVKDMVEYKDRCMADKTLPECSKLPNNVLQEKICAMEGLPQKHNFSHCCSKVDAQRRLCFFYNKKSDVGFLPPFPTLDPEEKCQAYESNRESLLNHFLYEVARRNPFVFAPTLLTVAVHFEEVAKSCCEEQNKVNCLQTRAIPVTQYLKAFSSYQKHVCGALLKFGTKVVHFIYIAILSQKFPKIEFKELISLVEDVSSNYDGCCEGDVVQCIRDTSKVMNHICSKQDSISSKIKECCEKKIPERGQCIINSNKDDRPKDLSLREGKFTDSENVCQERDADPDTFFAKFTFEYSRRHPDLSIPELLRIVQIYKDLLRNCCNTENPPGCYRYAEDKFNETTEKSLKMVQQECKHFQNLGKDGLKYHYLIRLTKIAPQLSTEELVSLGEKMVTAFTTCCTLSEEFACVDNLADLVFGELCGVNENRTINPAVDHCCKTNFAFRRPCFESLKADKTYVPPPFSQDLFTFHADMCQSQNEELQRKTDRFLVNLVKLKHELTDEELQSLFTNFANVVDKCCKAESPEVCFNEESPKIGN

Legend:
[1] = test system: isolated cortical neurons of chicken embryos; assay: H2O2-lesion assay, MTT viability of isolated cortical neurons; format: cell-based; conditions: 100 μM H2O2 for 24 h, FIG. 2b
Description: After the low serum assay or the lesion assay, the MTT assay is used to check the viability of neuronal cells (MTT=3-(4,5-dimethylthiazol-2-yl)-2,5-diphenyltriazolium bromide).
The neuronal viability of cells in vitro can be determined by means of this calorimetric MTT test. The MTT assay is based on the metabolic reduction of MTT, a substance of yellow color, to dark-blue formazane crystals by mitochondrial dehydrogenases (e.g. succinate dehydrogenase). The crystals are dissolved, and the spectrometric absorption is measured at a suitable wave length.
The neurons were prepared by breaking ethanoltreated eggs and putting the embryos into a plastic dish. After decapitation, the hemispheres were removed and collected. Loose tissue and meningial membranes were removed, and the hemispheres were mechanically dissociated.
80 μl cell suspension containing 6×10^5 cells/ml nutrient medium were added to each well of the microtiter plate which already contained 80 μl of medium with or without the substances. The plates were kept at 37° C., 95% humidity and 5% CO2 without a change of media (up to 8 DIV).
The low serum medium contains 100 ml of DEMEM with 1 g of glucose/l, 2% fetal calf serum, 0.01% Gentamycin and 2 mM L-glutamine. The nutrient medium for the lesion assays contains 100 ml of DMEM with 4.5 g of glucose/l, 5% fetal calf serum, 0.01% gentamycin and 2 mM L-glutamine.
At DIV 8, the cells were treated with 20 μM of pre-aggregated β-amyloid peptide (Aβ25-35; Sigma) for 72 hours, or with 100 μM H2O2 for 24 h.

[2] = test system: isolated cortical neurons of chicken embryos; assay: β-amyloid lesion assay, MTT viability of isolated cortical neurons; format: cell-based; conditions: 20 μM pre-aggregated β-amyloid peptide (Aβ25-35) for 72 hours, FIG. 2c
Description: (§1) The neuroprotective effect of Afamin was examined by assaying isolated cortical neurons of chicken embryos. The effect of Afamin was tested in a low-serum assay and in two lesion assays, namely in a β-amyloid and a H2O2-lesion assay.
(§2) After the low serum assay or the lesion assay, the MTT assay is used to check the viability of neuronal cells (MTT=3-(4,5-dimethylthiazol-2-yl)-2,5-[…]). This is a suitable model which is extremely reproducible. The test also allows for assaying a large number of samples, and dose-dependent differences in the activity of a substance can be evaluated.
(§3) The neuronal viability of cells in vitro can be determined by means of this […] MTT test. The MTT assay is based on the metabolic reduction of MTT, a substance of yellow color, to dark-blue formazane crystals by mitochondrial dehydrogenases (e.g. succinate dehydrogenase). The crystals are dissolved, and the spectrometric absorption is measured at a suitable wave length.
(§4) In detail, isolated cortical neurons of 8- (lesion assays) or 9- (low serum assay) day-old chicken embryos (White Leghorn or Lohman Brown Hybrid strain) were used.
(§5) The neurons were prepared by breaking ethanoltreated eggs and putting the embryos into a plastic dish. […]
(§6) At the end of each experiment, the viability of the cultures was tested by means of the MTT assay with a plate reader at 570 nm.

Afamin = target: T1, Afamin (Homo sapiens, UniProt P43652); assay: Scatchard-plot analysis of the binding of vitamin E to Afamin; conditions: FIG. 3
T1 sequence (P43652 22-599): B1 Afamin

[3] = test system: isolated cortical neurons of chicken embryos; assay: Low serum assay (2% serum), MTT viability of isolated cortical neurons; format: cell-based; conditions: partial serum withdrawal to 2%, FIG. 2a
Description: as §1, §2, §3, §4, §5, §6

[4] = test system: glutamine synthetase (GS); assay: 3-NP-induced reduction of glutamine synthetase (GS) activity in brain spheroids; format: cell-based; conditions: 5-day treatment with 3-NP (0.5 and 5 mM), Afamin 0.3 and 3 μg/ml without vitamin E, FIG. 1
Description: Because of the mechanistic and pathological similarities between 3-NP lesions and Hungington's Disease (HD), 3-NP has been proposed as an alternative HD-model. Malonate and 3-NP are inhibitors of the succinate dehydrogenase which produce an energy loss and lesions which are similar to those observed in HD. Systemic administration of 3-NP causes a progressive locomotory deterioration which corresponds to that of HD.
After the extraction of brain spheroids and a one-week culturing, D,L-alpha-tocopherol (0.1 mM) were added to the medium. Two weeks old spheroids were plated in a plate having six wells. Shortly after the exposure, the medium was replaced by 2 ml of fresh medium. The spheroids were exposed to 3-NP (0.5 and 5 mM, pH adjusted to 7 to 8), or to the protectors vitamin E (0.1 mM), glutathione (1 mM), DTT (0.25 mM), L-NAME (N(G)-nitro-L-[…]-methylester) (0.1 mM), Afamin (without vitamin E (0.3 and 3 μg/ml) or combinations of 3-NP with the protectors for 5 days. After 2 days, freshly prepared 3-NP and protectors were added to the medium (Mathews et al., J. Neurosci, 18(1) (1998), 156-163); Borlongan et al., Neurosci Biohav. Res. 21(3) (1997), 289-293).
The results are illustrated in FIG. 1. […] As mentioned before, this system with 3NP constitutes a recognized model for excitotoxicity and serves as a model for Huntington's Disease.

| Molecule | reduction of damage / neuronal cell death by H2O2 [1] | reduction of damage / neuronal cell death by β-amyloid peptide [2] | theoretical maximum loading of an Afamin molecule (Afamin) | reduction of apoptosis / neuronal cell death in low serum medium [3] | protection of glutamine synthetase activity against inactivation by 3NP [4] |
| --- | --- | --- | --- | --- | --- |
| Cc1c(C)c2c(c(C)c1O)CCC(C)(CCCC(C)CCCC(C)CCCC(C)C)O2 [vitamin E, D,L-alpha-tocopherol, reference compound] | capable of reducing | capable of reducing | 18 molecules of vitamin E | capable of reducing the apoptosis |  |
| B1 | protects against neuronal cell death; also recorded: capable of reducing | protects against neuronal cell death; also recorded: capable of reducing |  | protects against neuronal cell death; also recorded: capable of reducing the apoptosis | by far the highest effect of all the tested substances |
